# Results published in ChEMBL document CHEMBL1201862, “PubChem BioAssay data set” (2004).
# Calls of active or inactive are those of the source.
# How the values were obtained:
# [1] = target: Genome polyprotein (dengue virus type 2, UniProt P29990); experiment: flavivirus cap methylation enzyme inhibition – biochemical, confirmation dose response, primary screen (AID 588689); assay type: functional
# [2] = non-specific 3'UTR reporter inhibition in Clone20-Shn3RL – cell-based, Renilla luciferase, cherry-picked, counter-screen for Shn3 inhibitor project, dose response (AID 624133); assay type: functional
# [3] = loss of viability in HepG2 cells – cell-based, CellTiter-Glo, cherry-picked, cytotoxicity control for Shn3 inhibitor project, dose response (AID 624134); assay type: functional
# [4] = target: Potassium voltage-gated channel subfamily KQT member 2 (Rattus norvegicus, UniProt O88943, W236L); experiment: potentiation of rat KCNQ2 current – cell-based, automated electrophysiology, mechanism study for KCNQ2 potentiator project, dose response (AID 2603); assay type: functional
# [5] = reduction of Shn3 3'UTR-driven luciferase in osteoblasts – cell-based, Clone20 osteoblasts, firefly luciferase, cherry-picked, dose response (AID 624132); assay type: functional;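 further: firefly luciferase luminescence from reporter carrying the Shn3 3'UTR in osteoblasts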
# [6] = target: T1, Hepatocyte nuclear factor 4-alpha (Homo sapiens, UniProt P41235); assay type: functional, cell-based;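 further: biochemical luminescence-based dose-response counterscreen measuring inhibition of HNF4 dimerization, run alongside a screen for blockers of ABHD5–perilipin-5 interaction; split luciferase complementation of HNF4 fusion proteins in cell lysate measuring dimerization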
# T1 sequence (P41235 whole entry): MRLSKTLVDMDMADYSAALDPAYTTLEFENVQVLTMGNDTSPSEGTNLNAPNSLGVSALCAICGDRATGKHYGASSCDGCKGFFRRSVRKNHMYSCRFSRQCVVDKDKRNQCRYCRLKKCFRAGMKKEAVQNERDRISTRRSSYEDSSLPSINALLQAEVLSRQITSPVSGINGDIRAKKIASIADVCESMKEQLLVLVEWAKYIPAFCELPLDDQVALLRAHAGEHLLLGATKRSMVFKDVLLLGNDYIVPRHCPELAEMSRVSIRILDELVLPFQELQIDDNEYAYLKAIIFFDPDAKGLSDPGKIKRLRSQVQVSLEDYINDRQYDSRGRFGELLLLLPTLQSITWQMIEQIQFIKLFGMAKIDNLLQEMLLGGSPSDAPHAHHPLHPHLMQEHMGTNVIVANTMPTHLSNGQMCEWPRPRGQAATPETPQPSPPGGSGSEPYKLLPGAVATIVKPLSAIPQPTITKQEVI
# [7] = target: T2, Replicative DNA helicase DnaB (Mycobacterium tuberculosis, UniProt P9WMR3); experiment: DnaB intein splicing inhibitors, dose response, biochemical, cell-free fluorescence (AID 449749); assay type: functional
# T2 sequence (P9WMR3 whole entry): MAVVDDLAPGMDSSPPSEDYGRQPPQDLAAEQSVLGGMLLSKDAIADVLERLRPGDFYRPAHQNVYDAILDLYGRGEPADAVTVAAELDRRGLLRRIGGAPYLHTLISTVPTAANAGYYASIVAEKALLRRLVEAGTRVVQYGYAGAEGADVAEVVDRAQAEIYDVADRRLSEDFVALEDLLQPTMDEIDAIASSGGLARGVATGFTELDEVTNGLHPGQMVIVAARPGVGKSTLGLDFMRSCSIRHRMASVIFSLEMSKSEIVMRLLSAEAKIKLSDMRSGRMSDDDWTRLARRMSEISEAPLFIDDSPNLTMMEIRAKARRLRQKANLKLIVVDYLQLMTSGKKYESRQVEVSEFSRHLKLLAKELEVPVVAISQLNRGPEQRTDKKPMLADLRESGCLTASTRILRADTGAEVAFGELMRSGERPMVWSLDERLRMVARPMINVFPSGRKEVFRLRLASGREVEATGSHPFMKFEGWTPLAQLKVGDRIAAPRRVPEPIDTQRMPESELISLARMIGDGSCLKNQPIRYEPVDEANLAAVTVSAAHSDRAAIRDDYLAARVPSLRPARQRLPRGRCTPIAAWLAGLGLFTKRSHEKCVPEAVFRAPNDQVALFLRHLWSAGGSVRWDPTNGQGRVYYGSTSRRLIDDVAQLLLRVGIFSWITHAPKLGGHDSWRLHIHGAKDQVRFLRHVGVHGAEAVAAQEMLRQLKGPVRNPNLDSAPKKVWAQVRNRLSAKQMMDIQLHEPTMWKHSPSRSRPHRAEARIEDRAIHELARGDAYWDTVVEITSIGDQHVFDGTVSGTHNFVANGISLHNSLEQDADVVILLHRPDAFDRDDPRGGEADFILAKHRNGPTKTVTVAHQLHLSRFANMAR
# [8] = tested on: Vero; experiment: viability of Vero cells under compound – cytotoxicity control for flavivirus capping enzyme inhibitors (AID 588742); assay type: functional; conditions: Chlorocebus sabaeus
# [9] = target: T3, Protein RecA (Mycobacterium tuberculosis, UniProt P9WHJ3); experiment: Fluorescence Cell-Free Homogeneous Dose Retest to Identify Inhibitors of RecA-Intein Splicing Activity. [Related pubchem assays (depositor defined):AID2097, AID2223, AID489010, AID492950]; assay type: functional
# T3 sequence (P9WHJ3 whole entry): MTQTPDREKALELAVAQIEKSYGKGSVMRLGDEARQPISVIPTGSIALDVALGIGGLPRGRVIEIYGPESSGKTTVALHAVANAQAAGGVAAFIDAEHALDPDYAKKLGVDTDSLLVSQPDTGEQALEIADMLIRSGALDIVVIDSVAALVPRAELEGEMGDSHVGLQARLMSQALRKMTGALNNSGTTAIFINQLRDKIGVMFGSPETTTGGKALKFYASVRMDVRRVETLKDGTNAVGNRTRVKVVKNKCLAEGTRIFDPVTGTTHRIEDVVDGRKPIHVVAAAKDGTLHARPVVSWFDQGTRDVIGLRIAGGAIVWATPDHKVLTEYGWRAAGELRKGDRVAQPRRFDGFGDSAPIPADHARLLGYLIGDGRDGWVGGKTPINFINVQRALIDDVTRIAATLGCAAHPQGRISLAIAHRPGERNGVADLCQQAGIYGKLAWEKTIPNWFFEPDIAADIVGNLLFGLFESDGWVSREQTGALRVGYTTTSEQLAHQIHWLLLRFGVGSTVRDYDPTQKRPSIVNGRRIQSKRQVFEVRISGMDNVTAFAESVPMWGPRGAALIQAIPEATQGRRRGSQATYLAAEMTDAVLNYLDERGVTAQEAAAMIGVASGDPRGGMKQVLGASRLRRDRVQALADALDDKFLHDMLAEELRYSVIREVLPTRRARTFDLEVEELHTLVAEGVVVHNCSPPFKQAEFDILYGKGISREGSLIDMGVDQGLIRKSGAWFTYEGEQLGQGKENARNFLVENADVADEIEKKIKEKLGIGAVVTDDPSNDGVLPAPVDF
# [10] = target: Caspase-8 (Homo sapiens, UniProt Q14790); experiment: inhibitors of purified CASP8 protease – biochemical, Z-IETD-R110 fluorescence, cherry-picked samples, selectivity assay for caspase-6 inhibitor project, dose response (AID 743294)
# Chain of Caspase-8 (Q14790 217-374 limits assumed): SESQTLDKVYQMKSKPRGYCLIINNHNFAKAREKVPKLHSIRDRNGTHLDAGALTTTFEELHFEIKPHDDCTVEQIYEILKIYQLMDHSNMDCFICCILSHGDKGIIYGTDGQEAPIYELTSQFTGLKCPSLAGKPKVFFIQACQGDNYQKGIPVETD
# Chain of Caspase-8 (Q14790 385-479 limits assumed): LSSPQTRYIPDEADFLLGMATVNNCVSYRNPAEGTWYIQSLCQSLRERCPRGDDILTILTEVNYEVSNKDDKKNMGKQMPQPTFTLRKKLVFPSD
# [11] = target: T4, Caspase-6 (Homo sapiens, UniProt P55212); experiment: inhibition of CASP6 peptide cleavage – biochemical, VEID-R110 fluorescence, cherry-pick, dose response (AID 720632)
# T4 sequence (P55212 whole entry): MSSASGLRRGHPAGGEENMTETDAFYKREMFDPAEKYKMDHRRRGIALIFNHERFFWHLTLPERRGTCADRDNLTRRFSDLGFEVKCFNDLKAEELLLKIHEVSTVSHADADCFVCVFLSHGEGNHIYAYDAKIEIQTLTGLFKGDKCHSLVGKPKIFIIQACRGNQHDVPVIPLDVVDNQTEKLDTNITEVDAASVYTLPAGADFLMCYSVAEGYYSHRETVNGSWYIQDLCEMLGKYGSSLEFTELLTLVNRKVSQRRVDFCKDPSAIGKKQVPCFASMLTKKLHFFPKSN
# [12] = target: T5, Caspase-7 (Homo sapiens, UniProt P55210); experiment: caspase-7 enzyme inhibition, selectivity check – biochemical, DEVD-R110 fluorescence, cherry-pick, selectivity assay for caspase-6 inhibitor project, dose response (AID 743295); assay type: functional
# T5 sequence (P55210 whole entry): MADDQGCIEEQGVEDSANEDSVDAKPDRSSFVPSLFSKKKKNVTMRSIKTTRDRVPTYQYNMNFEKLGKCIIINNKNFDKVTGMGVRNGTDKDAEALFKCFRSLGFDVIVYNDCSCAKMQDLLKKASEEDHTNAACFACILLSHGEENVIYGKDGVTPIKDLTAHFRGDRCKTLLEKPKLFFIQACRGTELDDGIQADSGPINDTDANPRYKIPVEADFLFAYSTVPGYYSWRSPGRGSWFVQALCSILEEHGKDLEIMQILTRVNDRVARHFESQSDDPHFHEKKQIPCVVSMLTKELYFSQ
# [13] = target: Beta-adrenergic receptor kinase 1 (Homo sapiens, UniProt P25098); experiment: aptamer displacement from bead-bound GRK2 – biochemical, cherry pick 1, bead flow cytometry, dose response (AID 504500)
# Chain of Beta-adrenergic receptor kinase 1 (P25098 whole entry, the tested form may be a part): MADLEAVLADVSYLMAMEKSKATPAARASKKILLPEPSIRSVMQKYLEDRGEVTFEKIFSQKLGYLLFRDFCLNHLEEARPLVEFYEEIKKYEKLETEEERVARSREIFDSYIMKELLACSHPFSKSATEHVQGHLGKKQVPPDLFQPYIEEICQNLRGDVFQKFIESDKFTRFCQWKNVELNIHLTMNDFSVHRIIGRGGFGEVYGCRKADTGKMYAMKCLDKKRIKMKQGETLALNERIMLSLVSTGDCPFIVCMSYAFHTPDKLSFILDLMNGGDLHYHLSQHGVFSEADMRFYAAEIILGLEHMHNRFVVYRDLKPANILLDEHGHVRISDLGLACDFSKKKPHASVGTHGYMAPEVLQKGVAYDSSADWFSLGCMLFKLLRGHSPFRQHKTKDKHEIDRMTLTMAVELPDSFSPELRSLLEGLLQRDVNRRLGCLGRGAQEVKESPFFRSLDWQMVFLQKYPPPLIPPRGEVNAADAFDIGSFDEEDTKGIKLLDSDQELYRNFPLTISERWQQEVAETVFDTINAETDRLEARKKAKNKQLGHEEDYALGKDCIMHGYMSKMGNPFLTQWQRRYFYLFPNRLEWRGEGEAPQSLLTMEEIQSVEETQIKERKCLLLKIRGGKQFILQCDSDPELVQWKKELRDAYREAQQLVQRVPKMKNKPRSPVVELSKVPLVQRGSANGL
# [14] = target: T6, Carboxy-terminal domain RNA polymerase II polypeptide A small phosphatase 1 (Homo sapiens, UniProt Q9GZU7); experiment: CTDSP1 inhibitors, concentration-response, biochemical, absorbance readout, ultra-high-throughput screen actives (AID 540297); assay type: functional
# T6 sequence (Q9GZU7 whole entry): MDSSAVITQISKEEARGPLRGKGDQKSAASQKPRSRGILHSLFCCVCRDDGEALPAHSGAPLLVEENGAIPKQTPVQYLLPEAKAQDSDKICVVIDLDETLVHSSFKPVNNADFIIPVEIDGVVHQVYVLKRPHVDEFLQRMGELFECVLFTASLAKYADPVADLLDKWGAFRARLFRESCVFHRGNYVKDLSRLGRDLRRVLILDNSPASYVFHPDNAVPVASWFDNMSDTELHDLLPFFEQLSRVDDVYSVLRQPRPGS
# [15] = target: Dual specificity protein kinase CLK1 (Homo sapiens, UniProt P49759); experiment: inhibition of human CLK1 activity – biochemical, cherry-picked samples, selectivity assay for Dyrk1A inhibitor project, dose response (AID 588811)
# Chain of Dual specificity protein kinase CLK1 (P49759 whole entry): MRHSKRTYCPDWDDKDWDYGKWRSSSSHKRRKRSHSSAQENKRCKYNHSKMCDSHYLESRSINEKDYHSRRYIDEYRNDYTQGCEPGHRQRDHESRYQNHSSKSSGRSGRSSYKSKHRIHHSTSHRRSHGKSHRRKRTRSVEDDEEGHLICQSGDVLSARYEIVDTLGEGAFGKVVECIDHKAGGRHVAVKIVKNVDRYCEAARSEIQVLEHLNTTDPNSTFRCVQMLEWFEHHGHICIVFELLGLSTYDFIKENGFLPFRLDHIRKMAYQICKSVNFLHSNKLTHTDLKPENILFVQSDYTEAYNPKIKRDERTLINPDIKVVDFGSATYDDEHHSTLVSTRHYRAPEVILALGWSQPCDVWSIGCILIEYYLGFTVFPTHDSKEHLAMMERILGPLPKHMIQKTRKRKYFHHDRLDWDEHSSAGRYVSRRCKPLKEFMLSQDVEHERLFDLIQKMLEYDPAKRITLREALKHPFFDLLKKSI
# [16] = target: Voltage-gated inwardly rectifying potassium channel KCNH2 (Homo sapiens, UniProt Q12809); conditions: Potency;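 further: confirmatory quantitative high-throughput screen measuring inhibition of hERG channel activity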
# [17] = tested on: INS1; experiment: INS-1E mitochondrial potential loss inhibitors – cell-based, JC-1 fluorescence, dry powder, set 2, dose response (AID 488867); assay type: functional; conditions: Rattus norvegicus
# [18] = tested on: HEK293; experiment: EBV LMP1 TES2 canonical NF-kB signalling blockers – cell-based, HEK293, luciferase, cherry-pick, dose response (AID 588343); assay type: functional; conditions: Homo sapiens
# [19] = target: T7, Leucine aminopeptidase (Plasmodium falciparum 3D7, UniProt Q8IL11); experiment: P. falciparum M17LAP inhibitors, primary screen, biochemical, fluorogenic H-Leu-NHMec substrate, 1536-well (AID 1619); assay type: functional
# T7 sequence (Q8IL11 whole entry): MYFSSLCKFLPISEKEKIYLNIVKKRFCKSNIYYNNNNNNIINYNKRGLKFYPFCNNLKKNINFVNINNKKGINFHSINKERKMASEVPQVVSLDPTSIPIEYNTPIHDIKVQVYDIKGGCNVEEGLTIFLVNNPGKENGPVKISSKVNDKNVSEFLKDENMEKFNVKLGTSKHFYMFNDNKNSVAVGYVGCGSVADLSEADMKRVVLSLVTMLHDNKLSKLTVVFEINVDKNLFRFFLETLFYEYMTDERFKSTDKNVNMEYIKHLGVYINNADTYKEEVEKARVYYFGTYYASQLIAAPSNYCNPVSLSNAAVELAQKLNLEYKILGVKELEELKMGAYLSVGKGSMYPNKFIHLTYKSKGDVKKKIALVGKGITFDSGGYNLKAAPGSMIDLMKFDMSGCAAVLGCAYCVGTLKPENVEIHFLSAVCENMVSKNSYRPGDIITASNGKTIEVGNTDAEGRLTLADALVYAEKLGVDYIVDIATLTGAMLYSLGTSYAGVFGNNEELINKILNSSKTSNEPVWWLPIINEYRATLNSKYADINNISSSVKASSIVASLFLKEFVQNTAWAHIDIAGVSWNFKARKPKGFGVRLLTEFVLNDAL
# [20] = target: Aspartyl aminopeptidase (Plasmodium falciparum 3D7, UniProt Q8I2J3); experiment: Counterscreen for inhibitors of M1 and M17 aminopeptidases: QFRET-based biochemical high throughput dose response assay for inhibitors of the Plasmodium falciparum M18 Aspartyl Aminopeptidase (PFM18AAP). [Related PubChem assays: 1619 (Screening assay (M17LAP inhibitors).), 1445 (Screening assay (M1AAP inhibitors).)]
# Chain of Aspartyl aminopeptidase (Q8I2J3 whole entry): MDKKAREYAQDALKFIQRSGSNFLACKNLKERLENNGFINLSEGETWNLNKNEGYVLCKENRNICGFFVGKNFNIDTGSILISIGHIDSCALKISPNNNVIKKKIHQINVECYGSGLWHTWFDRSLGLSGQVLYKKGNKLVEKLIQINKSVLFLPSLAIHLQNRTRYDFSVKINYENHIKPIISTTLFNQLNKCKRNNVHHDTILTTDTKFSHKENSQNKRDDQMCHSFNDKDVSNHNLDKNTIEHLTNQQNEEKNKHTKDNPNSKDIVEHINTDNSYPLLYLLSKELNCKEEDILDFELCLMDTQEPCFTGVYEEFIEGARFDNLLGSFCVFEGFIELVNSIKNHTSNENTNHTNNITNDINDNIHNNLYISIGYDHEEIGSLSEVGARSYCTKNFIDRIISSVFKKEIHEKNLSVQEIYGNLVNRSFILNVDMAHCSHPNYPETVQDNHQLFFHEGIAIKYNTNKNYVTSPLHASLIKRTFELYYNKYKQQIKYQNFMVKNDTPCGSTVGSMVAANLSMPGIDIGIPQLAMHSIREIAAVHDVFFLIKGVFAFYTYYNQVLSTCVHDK
# [21] = target: Procathepsin L (Homo sapiens, UniProt P07711); experiment: CTSL1 protease inhibition – biochemical, QFRET, 1536-well, counter-screen for M1/M17 aminopeptidase inhibitor project, dose response (AID 2214)
# Chain of Procathepsin L (P07711 whole entry): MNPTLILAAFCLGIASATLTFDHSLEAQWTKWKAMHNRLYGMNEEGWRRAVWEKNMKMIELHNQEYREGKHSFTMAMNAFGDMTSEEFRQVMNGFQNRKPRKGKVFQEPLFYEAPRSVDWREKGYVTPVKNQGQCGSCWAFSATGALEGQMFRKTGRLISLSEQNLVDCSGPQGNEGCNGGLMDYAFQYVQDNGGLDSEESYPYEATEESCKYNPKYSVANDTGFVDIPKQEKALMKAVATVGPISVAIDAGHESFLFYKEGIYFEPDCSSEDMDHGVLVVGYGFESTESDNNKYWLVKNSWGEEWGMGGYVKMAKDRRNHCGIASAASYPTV
# [22] = target: Phospholipase D1 (Homo sapiens, UniProt Q13393); experiment: cellular phospholipase D1 inhibition IC50 – cell-based, dose response (AID 602151); assay type: functional;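 further: cellular PLD1 assay in Calu-1 cells stimulated with PMA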
# Chain of Phospholipase D1 (Q13393 whole entry): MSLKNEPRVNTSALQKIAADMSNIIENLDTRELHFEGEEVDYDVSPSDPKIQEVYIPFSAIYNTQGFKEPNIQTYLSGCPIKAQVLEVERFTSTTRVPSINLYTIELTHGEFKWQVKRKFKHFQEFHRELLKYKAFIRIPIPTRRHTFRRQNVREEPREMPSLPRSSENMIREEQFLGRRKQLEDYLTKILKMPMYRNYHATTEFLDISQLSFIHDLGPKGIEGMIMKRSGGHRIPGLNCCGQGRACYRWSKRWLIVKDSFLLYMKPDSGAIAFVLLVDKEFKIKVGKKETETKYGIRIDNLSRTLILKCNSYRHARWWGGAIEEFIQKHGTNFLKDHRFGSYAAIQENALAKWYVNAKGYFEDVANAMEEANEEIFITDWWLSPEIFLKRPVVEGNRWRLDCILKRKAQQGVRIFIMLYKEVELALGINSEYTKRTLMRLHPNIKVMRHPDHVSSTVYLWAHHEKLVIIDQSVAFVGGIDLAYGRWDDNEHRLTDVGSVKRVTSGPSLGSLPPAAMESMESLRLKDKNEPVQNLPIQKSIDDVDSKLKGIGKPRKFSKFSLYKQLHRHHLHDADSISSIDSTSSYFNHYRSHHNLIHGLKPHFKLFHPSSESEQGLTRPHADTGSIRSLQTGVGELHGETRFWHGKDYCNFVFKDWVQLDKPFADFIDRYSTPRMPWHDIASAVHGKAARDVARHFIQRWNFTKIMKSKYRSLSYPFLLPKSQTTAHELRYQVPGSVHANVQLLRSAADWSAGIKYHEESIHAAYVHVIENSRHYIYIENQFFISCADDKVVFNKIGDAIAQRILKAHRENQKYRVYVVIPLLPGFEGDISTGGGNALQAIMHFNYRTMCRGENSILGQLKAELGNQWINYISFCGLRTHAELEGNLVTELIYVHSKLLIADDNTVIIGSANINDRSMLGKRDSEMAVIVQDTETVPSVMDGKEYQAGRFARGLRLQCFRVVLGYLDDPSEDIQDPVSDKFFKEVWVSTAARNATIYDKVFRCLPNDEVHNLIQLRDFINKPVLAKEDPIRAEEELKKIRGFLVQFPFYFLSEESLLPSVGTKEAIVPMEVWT
# [23] = target: Phospholipase D2 (Homo sapiens, UniProt O14939); experiment: cellular phospholipase D2 inhibition IC50 – cell-based, dose response (AID 602147); assay type: functional;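 further: cellular assay in HEK293 cells overexpressing GFP-tagged PLD2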
# Chain of Phospholipase D2 (O14939 whole entry): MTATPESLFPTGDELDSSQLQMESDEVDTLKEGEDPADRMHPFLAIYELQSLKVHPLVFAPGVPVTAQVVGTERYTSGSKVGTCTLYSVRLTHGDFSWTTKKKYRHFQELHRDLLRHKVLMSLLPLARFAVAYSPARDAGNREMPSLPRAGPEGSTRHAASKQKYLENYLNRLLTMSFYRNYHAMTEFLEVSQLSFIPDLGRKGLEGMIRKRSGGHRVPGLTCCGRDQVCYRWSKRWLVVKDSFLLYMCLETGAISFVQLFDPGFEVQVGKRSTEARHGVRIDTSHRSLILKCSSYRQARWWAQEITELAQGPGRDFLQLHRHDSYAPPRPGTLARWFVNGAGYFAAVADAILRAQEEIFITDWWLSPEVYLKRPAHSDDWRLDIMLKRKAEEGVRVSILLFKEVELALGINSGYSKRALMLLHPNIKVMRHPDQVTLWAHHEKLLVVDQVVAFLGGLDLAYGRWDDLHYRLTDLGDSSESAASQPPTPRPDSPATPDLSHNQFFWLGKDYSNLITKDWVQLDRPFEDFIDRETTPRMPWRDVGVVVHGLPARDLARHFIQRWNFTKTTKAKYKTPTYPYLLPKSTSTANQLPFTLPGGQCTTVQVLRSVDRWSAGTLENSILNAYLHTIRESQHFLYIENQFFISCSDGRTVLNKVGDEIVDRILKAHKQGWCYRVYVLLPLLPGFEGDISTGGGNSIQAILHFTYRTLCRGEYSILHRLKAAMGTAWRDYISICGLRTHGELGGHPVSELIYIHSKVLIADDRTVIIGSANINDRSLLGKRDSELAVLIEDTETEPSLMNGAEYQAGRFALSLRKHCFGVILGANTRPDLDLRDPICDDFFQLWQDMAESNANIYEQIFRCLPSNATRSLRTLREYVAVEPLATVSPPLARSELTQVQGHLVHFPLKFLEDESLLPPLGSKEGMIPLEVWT
compound,measurement,setting,value
CCc1nnc(NC(=O)c2nc(S(=O)(=O)Cc3ccccc3)ncc2Cl)s1,IC50,[1],> 100 µM (active)
same,AC50,[2],11.1 µM (active)
same,AC50,[3],> 70 µM (inactive)
same,EC50,[4],17.3 µM (active)
same,AC50,[5],2.72 µM (active)
same,IC50,[6],5.95 µM (active)
same,AC50,[7],18.5 µM (active)
same,CC50,[8],27.6 µM (active)
same,EC50,[9],5.09 µM (active)
O=C(O)C1CCCCC1C(=O)Nc1cccc(Br)c1 (stereo not drawn),AC50,[10],25.8 µM (active)
same,AC50,[11],0.669 µM (active)
same,AC50,[12],> 70 µM (inactive)
same,EC50,[13],3.85 µM (active)
same,IC50,[14],3.06 µM (active)
CN(Cc1nccs1)c1ncnc2ccc(-c3ccc4c(c3)OCO4)cc12,AC50,[15],< 0.00195 µM (active)
CC(C)(C)c1ccc(S(=O)(=O)/C=C/C#N)cc1 [BAY-11-7085],AC50,[16],35.5 µM (inconclusive)
COc1ccc(S(=O)(=O)N(C)C[C@@H]2Oc3c(NC(=O)NC(C)C)cccc3C(=O)N([C@@H](C)CO)C[C@H]2C)cc1,AC50,[17],46.4 µM (active)
Cc1cc(C(=O)COC(=O)c2cccnc2O)c(C)n1-c1ccccc1,AC50,[18],9.69 µM (active)
same,IC50,[19],2.67 µM (active)
same,IC50,[20],> 73.5 µM (not active)
same,IC50,[21],> 59.6 µM (not active)
C[C@H](CN1CCC(n2nnc3ccccc32)CC1)NC(=O)c1ccc2ccccc2c1,IC50,[22],3.8 µM (active)
same,IC50,[23],12 µM (active)
